US20180028477A1, “TREATMENT OF CARDIAC REMODELING AND OTHER HEART CONDITIONS” (C & C BIOPHARMA, LLC, priority 2013, published 2018)
Entries after “also recorded” stand apart in the source; their conditions may differ.

Tests used:
[1] = Metabolic stability in human liver microsomes fortified with NADPH (Example 11); type: in vitro ADME; design: CLint scaled: dose or concentration left out as unconfirmed; settings: for K (rate constant): 0.5 mg/mL human liver microsomes, 1 mM NADPH, pH 7.4, 37° C.; for Clhp (hepatic clearance) / CLint scaled / metabolic stability / clearance in the liver, in words / intrinsic clearance (Clint) rate, fold higher than 7MI / intrinsic clearance (Clint) rate, fold higher than 8MI: human liver microsomes; for CLint scaled: pH 7.4, from mono-exponential decay model, read-out: Clint (intrinsic clearance); for metabolic stability / clearance in the liver, in words: comparison of 7MI, 8MI, BML-210, TSA; for intrinsic clearance (Clint) rate, fold higher than 7MI: ratio to 7MI; for intrinsic clearance (Clint) rate, fold higher than 8MI: ratio to 8MI
From the text: Drug clearance is a measure of the ability of the body or an organ to eliminate a drug from the blood circulation. Systemic clearance is a measure of the ability of the entire body to eliminate the drug. Organ clearance is a measure of the ability of a particular organ (hepatic or renal) to eliminate the drug. For hepatic clearance, the liver is the major organ for drug metabolism and the key organ for drug clearance. Human liver microsomes (HLM) fortified with NADPH is a standard way to measure in vitro metabolism and predict in vivo clearance. CLint (intrinsic clearance) is the link between in vitro and in vivo studies, which can be estimated based on the mono-exponential decay model: Ct=C X e^−kt.
Human liver microsomes fortified with NADPH is a standard approach to evaluate metabolic stability mediated by CYP (cytochrome P450) enzymes in vitro. The reaction mixture (0.4 mL) contained 0.5 mg/mL human liver microsomes, 100 mM phosphate buffer (pH 7.4) and […] of test compounds. The mixture was first warmed up for 5 min in a 37° C. shaking water bath and then NADPH at a final concentration of 1 mM was added to initiate the reaction. Aliquots […] were taken at specified time points and mixed with ice-cold methanol (containing internal standard) to stop the reaction. The mixture was vortexed briefly and centrifuged for protein precipitation. An aliquot of […] supernatant was subject to LC-MS/MS analysis. The percentage of compound disappearance was used to calculate the rate of metabolism.

[2] = system: Neonatal Rat Ventricular Myocytes (NRVMs); test: Serum (FBS)-induced hypertrophy of Neonatal Rat Ventricular Myocytes in vitro; type: cell-based; settings: for viability: NRVMs (not shown); for order of potency for inhibitors / growth response to Fetal Bovine Serum / serum-stimulated myocyte growth (hypertrophy): NRVMs; for order of potency for inhibitors: FBS-induced growth; for growth response to Fetal Bovine Serum / serum-stimulated myocyte growth (hypertrophy): pre-treatment with a range of doses
Protocol: The cells were also treated with DMSO (light gray bars) or a vehicle (dark gray bars) as a negative control. The order of potency for inhibitors was DMSO<7MI<TSA<8MI. Viability was unchanged (not shown).
Next, the ability of 7MI and 8MI to inhibit hypertrophy in vitro was tested (FIG. 2A). […] However, fetal calf serum, which contained a rich variety of growth factors, was chosen as the most robust and multifactorial stimulus for cardiomyocyte growth available, reasoning that a similarly robust and powerful inhibitor would be required to block this hypertrophy.

HDACs = settings: background statement; cited from earlier work
[3] = mice, previously reported, cited from earlier work

## Nc1ccccc1NC(=O)CCCCCC(=O)Nc1ccc(Br)cc1 [7MI]
[1]
  K (rate constant): 0.0027 min⁻¹
  Clhp (hepatic clearance): 2.45 mL/min/kg
  CLint scaled: 2.78 mL/min/kg
[2]
  viability: unchanged
  order of potency for inhibitors: DMSO<7MI<TSA<8MI
  growth response to Fetal Bovine Serum / serum-stimulated myocyte growth (hypertrophy): sufficient to block myocyte hypertrophy; also recorded: depressed growth response

## O=C(CCCCCN1C(=O)c2cccc3cccc(c23)C1=O)NO [Scriptaid]
HDACs
  HDAC inhibition range: low nanomolar range

## CC(/C=C/C(=O)NO)=C\[C@@H](C)C(=O)c1ccc(N(C)C)cc1 [TSA, Trichostatin A, reference compound]
[3]; 1 mg/kg
  survival at the tolerated daily dosage: not all of the mice survived
[3]
  tolerated daily dosage: 1 mg/kg
HDACs
  HDAC inhibition range: low nanomolar range
[1]
  K (rate constant): 0.0088 min⁻¹
  Clhp (hepatic clearance): 6.30 mL/min/kg
  metabolic stability / clearance in the liver, in words: metabolically cleared much faster than 7MI or 8MI
  intrinsic clearance (Clint) rate, fold higher than 7MI: 3.2 fold
  intrinsic clearance (Clint) rate, fold higher than 8MI: 1.9 fold
  CLint scaled: 9.05 mL/min/kg
[2]
  viability: unchanged
  order of potency for inhibitors: DMSO<7MI<TSA<8MI
  growth response to Fetal Bovine Serum / serum-stimulated myocyte growth (hypertrophy): depressed growth response

## Nc1ccccc1NC(=O)CCCCCCC(=O)Nc1ccccc1 [BML-210, reference compound]
[1]
  K (rate constant): 0.0116 min⁻¹
  Clhp (hepatic clearance): 7.57 mL/min/kg
  metabolic stability / clearance in the liver, in words: high clearance compound
  intrinsic clearance (Clint) rate, fold higher than 7MI: 4.3 fold
  intrinsic clearance (Clint) rate, fold higher than 8MI: 2.5 fold
  CLint scaled: 11.9 mL/min/kg
